Molecules are shown by their SMILES. Calls of active or inactive are those of the source. No cut-off for these calls is given here.

This note sets out measurements from ChEMBL document CHEMBL6134783, “Discovery of hybrid Glypromate conjugates with neuroprotective activity against paraquat-induced toxicity” (RSC Med Chem, 2024).

Series [1] can be described thus: Neurotoxicity against non-differentiated human SH-SY5Y cells assessed as reduction in cell viability at 100 uM measured after 24 hrs by MTT assay relative to control. In kind it is toxicity, cell-based. On the technique in general: Tetrazolium dyes change colour on reduction, which living cells bring about.
Series [2] deals with SH-SY5Y. As to the kind of experiment: Neuroprotective activity in amyloid beta (25 to 35)-induced non-differentiated human SH-SY5Y cells assessed as reduction in protein aggregation at 100 uM incubated for 24 hrs by ThT fluorescence assay relative to control. Format: functional.
The nature of series [3]: Neurotoxicity against retinoic acid/TPA differentiated human SH-SY5Y cells assessed as reduction in cell viability at 100 uM measured after 48 hrs by MTT assay relative to control. Format: toxicity, cell-based.
The subject of series [4] is SH-SY5Y. As to the kind of experiment: Neuroprotective activity against 6-OHDA-induced cytotoxicity in differentiated human SH-SY5Y cells at 100 uM incubated for 48 hrs by MTT reduction assay relative to control. In kind it is functional.
The subject of series [5] is SH-SY5Y. As to the kind of experiment: Neuroprotective activity against 6-OHDA-induced cytotoxicity in differentiated human SH-SY5Y cells at 100 uM incubated for 48 hrs by NR uptake assay. In kind it is functional, cell-based.
Series [6] deals with SH-SY5Y. Put plainly: Neuroprotective activity against PQ-induced cytotoxicity in differentiated human SH-SY5Y cells at 100 uM incubated for 48 hrs by MTT reduction assay. Format: functional. Also noted: scale not given: the % may be the effect or the level left.
Series [7] concerns SH-SY5Y. Put plainly: Neuroprotective activity against PQ-induced cytotoxicity in differentiated human SH-SY5Y cells assessed as NR uptake at 100 uM incubated for 48 hrs by NR uptake assay (reference value: 36.78 +/- 9.57%). In kind it is functional.
The test system of series [8] is SH-SY5Y. As to the kind of experiment: Neuroprotective activity against PQ-induced cytotoxicity in differentiated human SH-SY5Y cells assessed as viable cells at 100 uM incubated for 48 hrs by MTT reduction assay (reference value: 46.02 +/- 3.61%). Format: functional. The note with it: read-out: Activity.
Series [9] deals with SH-SY5Y. As to the kind of experiment: Neuroprotective activity against 6-OHDA-induced cytotoxicity in differentiated human SH-SY5Y cells assessed as NR uptake at 100 uM incubated for 48 hrs by NR uptake assay (reference value: 61.31 +/- 12.93%). Format: functional.
In series [10] the test system is SH-SY5Y. Put plainly: Neuroprotective activity against PQ-induced cytotoxicity in differentiated human SH-SY5Y cells at 100 uM incubated for 48 hrs by NR uptake assay. Format: functional.

As for `COC(=O)CC[C@H](NC(=O)[C@@H]1[C@H]2CC[C@H](C2)N1C(=O)CNC(=O)OC(C)(C)C)C(=O)NC12CC3CC(CC(C3)C1)C2`, in series [1], the Activity turned out to be 90.79%.
As for `COC(=O)[C@H](CCC(=O)NC12CC3CC(CC(C3)C1)C2)NC(=O)[C@@H]1CCCN1C(=O)CN`, the result in the series with SH-SY5Y [2] was inactive.
As for `COC(=O)CC[C@H](NC(=O)[C@@H]1[C@H]2CC[C@H](C2)N1C(=O)CNC(=O)OC(C)(C)C)C(=O)N[C@@H]1CCc2ccccc21`, the Activity in [1] is given as 86.49%. For the same compound, in the series on SH-SY5Y [2], the outcome was inactive.
For the compound `COC(=O)CC[C@H](NC(=O)[C@@H]1[C@H]2CC[C@H](C2)N1C(=O)CN)C(=O)N[C@@H]1CCc2ccccc21.O=C(O)C(F)(F)F`, the Activity in [1] is on record as 96.04%; in the series on SH-SY5Y [6], 4%; with SH-SY5Y [7] it was 40.76%. The result in the series on SH-SY5Y [2], with SH-SY5Y [4] and in the series with SH-SY5Y [5] was inactive. Besides, in [3], the “Cell viability (% of control)” value worked out at 98.48%.
Turning to `COC(=O)CC[C@H](NC(=O)[C@@H]1CCCN1C(=O)CN)C(=O)N[C@@H]1CCc2ccccc21`, the result in the series with SH-SY5Y [2] was Active.
On to `COC(=O)[C@H](CCC(=O)NC12CC3CC(C)(CC(C)(C3)C1)C2)NC(=O)[C@@H]1[C@H]2CC[C@H](C2)N1C(=O)CN.O=C(O)C(F)(F)F`, for which the Activity in [1] came out at 32.77%.
Take `COC(=O)CC[C@H](NC(=O)[C@@H]1[C@H]2CC[C@H](C2)N1C(=O)CN)C(=O)NC12CC3CC(CC(C3)C1)C2.O=C(O)C(F)(F)F`: the values for the Activity (in series [1]; in the series on SH-SY5Y [2]; in the series on SH-SY5Y [6]) were 93.91%, 20% and 5%, respectively. The “Cell viability (% of control)” value in [3] came to 102.46%. The outcome in the series on SH-SY5Y [4] and in the series on SH-SY5Y [5] was inactive.
Consider `N[C@@H]1CCc2ccccc21`, for which the viability at 100 µM in the series with SH-SY5Y [8] turned out to be 23.6%. For the same compound, in the series on SH-SY5Y [7], the Activity was 22.95%.
As for `COC(=O)[C@H](CCC(=O)NC12CC3CC(CC(C3)C1)C2)NC(=O)[C@@H]1[C@H]2CC[C@H](C2)N1C(=O)CN.O=C(O)C(F)(F)F`, the Activity in series [1] was 89.15%; with SH-SY5Y [7] it was 40.94%. Moreover, in [3], the “Cell viability (% of control)” value was found to be 96.82%. Besides, the outcome in the series on SH-SY5Y [4] and with SH-SY5Y [5] was inactive.
For `COC(=O)CC[C@H](NC(=O)[C@@H]1[C@H]2CC[C@H](C2)N1C(=O)CN(C)C)C(=O)N[C@@H]1CCc2ccccc21`, the “Cell viability (% of control)” value in series [3] amounted to 100.56%. Moreover, the outcome in the series on SH-SY5Y [4] and in the series with SH-SY5Y [5] was inactive.
For `COC(=O)CC[C@H](NC(=O)[C@@H]1[C@H]2CC[C@H](C2)N1C(=O)CNC(=O)OC(C)(C)C)C(=O)NC12CC3CC(C)(CC(C)(C3)C1)C2`, the “Cell viability (% of control)” value in series [3] came out at 98.1%. The outcome in the series on SH-SY5Y [4] and in the series with SH-SY5Y [5] was inactive. The viability at 100 µM in the series on SH-SY5Y [8] was determined as 38.8%.
As to `COC(=O)CC[C@H](NC(=O)[C@@H]1[C@H]2CC[C@H](C2)N1C(=O)CN(C)C)C(=O)NC12CC3CC(CC(C3)C1)C2`, the Activity was 97.93% in series [1] and 24% in the series on SH-SY5Y [2].
On to `NCC(=O)N1CCC[C@H]1C(=O)N[C@@H](CCC(=O)O)C(=O)O`, for which the Activity was 12% in the series with SH-SY5Y [2], 12% with SH-SY5Y [4], 25.32% in the series on SH-SY5Y [9] and 36.33% with SH-SY5Y [7]. For the same compound, the viability at 100 µM in the series with SH-SY5Y [8] was 25.3%.
In the case of `COC(=O)[C@H](CCC(=O)N[C@@H]1CCc2ccccc21)NC(=O)[C@@H]1[C@H]2CC[C@H](C2)N1C(=O)CNC(=O)OC(C)(C)C`, the Activity in series [1] turned out to be 32.77%. Moreover, in [3], the “Cell viability (% of control)” value came to 94.07%. Moreover, the result with SH-SY5Y [4] and with SH-SY5Y [5] was inactive.
With `NC12CC3CC(CC(C3)C1)C2` [AMANTADINE], in the series on SH-SY5Y [2], the Activity was 17%.
With `COC(=O)[C@H](CCC(=O)N[C@@H]1CCc2ccccc21)NC(=O)[C@@H]1[C@H]2CC[C@H](C2)N1C(=O)CN(C)C`, the Activity was 90.95% in series [1], 12% with SH-SY5Y [6] and “<=15%” in the series on SH-SY5Y [10]. The result with SH-SY5Y [2], in the series with SH-SY5Y [4] and in the series with SH-SY5Y [5] was inactive. The “Cell viability (% of control)” value in [3] came out at 96.47%.
Take `COC(=O)[C@H](CCC(=O)NC12CC3CC(CC(C3)C1)C2)NC(=O)[C@@H]1[C@H]2CC[C@H](C2)N1C(=O)CNC(=O)OC(C)(C)C`: the Activity in series [1] is 89.94%.
In the case of `COC(=O)[C@H](CCC(=O)NC12CC3CC(C)(CC(C)(C3)C1)C2)NC(=O)[C@@H]1[C@H]2CC[C@H](C2)N1C(=O)CN(C)C`, the Activity in series [1] turned out to be 32.77%. The “Cell viability (% of control)” value in [3] stood at 9.07%.
For the compound `COC(=O)[C@H](CCC(=O)N[C@@H]1CCc2ccccc21)NC(=O)[C@@H]1CCCN1C(=O)CN`, the result in the series with SH-SY5Y [2] was Active.
